Earlier results in article PMC7904743, “WIDOCK: a reactive docking protocol for virtual screening of covalent inhibitors” (Journal of Computer-Aided Molecular Design, 2021).
Read-outs that look alike come from different tables or passages of the source.

Columns and labels:
NUDT7 = settings: protein labeling at 200 μM; experimental actives if % labeling higher than 50%; cited from earlier work
[1] = thiol reactivity, cited from earlier work
OTUB2 = settings: experimental actives if % labeling higher than 50%, cited from earlier work
[2] = natural log of average rate constant k
[3] = natural logarithm of average rate constant
[4] = natural log of average kinetic rate constant
[5] = natural log of average rate constant

Compound	NUDT7 % labeling (NUDT7)	ln(avg k) [1, 2]	further results
O=C(CCl)Nc1ccc(N2CCCC2)cc1 [PCM-0102670, O=C(CCl)Nc1ccc(N2CCCC2)cc1]	0%	-13.297	ln(avg k) [1, 3]: -13.297; OTUB2 % labeling (OTUB2): 48%
CN1C(=O)c2ccc(NC(=O)CCl)cc2C1=O [PCM-0102309, CN1C(=O)c2ccc(NC(=O)CCl)cc2C1=O]	12%	-15.418	ln(avg k) [1, 3]: -15.418; OTUB2 % labeling (OTUB2): 19%
CC1CCC2(CC1)NC(=O)N(NC(=O)CCl)C2=O (stereo not shown) [PCM-0102666, CC1CCC2(CC1)NC(=O)N(NC(=O)CCl)C2=O]	0%	-17.364	ln(avg k) [1, 3]: -17.364; OTUB2 % labeling (OTUB2): 0%
O=C1CN(C(=O)CCl)C2(CCCCC2)C(=O)N1 [PCM-0102139, O=C1CN(C(=O)CCl)C2(CCCCC2)C(=O)N1]	22%	-15.673	ln(avg k) [1, 3]: -15.673; OTUB2 % labeling (OTUB2): 5%
CS(=O)(=O)c1ccccc1NC(=O)CCl [PCM-0102141, CS(=O)(=O)c1ccccc1NC(=O)CCl]	0%	-16.264	ln(avg k) [1, 3]: -16.264; OTUB2 % labeling (OTUB2): 0%
O=C(CCl)N(C1CCCCC1)C1CCS(=O)(=O)C1 (stereo not shown) [PCM-0102760, O=C(CCl)N(C1CCCCC1)C1CCS(=O)(=O)C1]	8%		ln(avg k) [1, 4]: -15.274; ln(avg k) [1, 5]: -15.274; OTUB2 % labeling (OTUB2; OTUB2 protein labeling): 0%
Cc1ccc(NC(=O)CCl)cc1 [PCM-0102320, Cc1ccc(NC(=O)CCl)cc1]	0%	-16.011	ln(avg k) [1, 3]: -16.011; OTUB2 % labeling (OTUB2): 24%
O=C(CCl)Nc1ccccc1O [PCM-0102907, O=C(CCl)Nc1ccccc1O]	36%		ln(avg k) [1, 5]: -17.265
CN(C)C(=O)CN1CCN(C(=O)CCl)CC1 [PCM-0102304, CN(C)C(=O)CN1CCN(C(=O)CCl)CC1]	0%	-16.500	ln(avg k) [1, 3]: -16.500; OTUB2 % labeling (OTUB2): 0%
CC(NC(=O)CCl)C(=O)O (stereo not shown) [PCM-0102990, CC(NC(=O)CCl)C(=O)O]	0%		ln(avg k) [1, 5]: -18.115
CC(C)N1CCC(NC(=O)CCl)CC1 [PCM-0102748, CC(C)N1CCC(NC(=O)CCl)CC1]	0%		ln(avg k) [1, 4]: -15.792; ln(avg k) [1, 5]: -15.792; OTUB2 % labeling (OTUB2; OTUB2 protein labeling): 0%
Cc1ccc(CN2CCCN(C(=O)CCl)CC2)cc1 [PCM-0103056, Cc1ccc(CN2CCCN(C(=O)CCl)CC2)cc1]	0%		OTUB2 % labeling (OTUB2; OTUB2 protein labeling): 0%
Cc1ccccc1CN1CCCN(C(=O)CCl)CC1 [PCM-0102911, Cc1ccccc1CN1CCCN(C(=O)CCl)CC1]	0%		OTUB2 % labeling (OTUB2; OTUB2 protein labeling): 0%
N#CC1(NC(=O)CCl)CCCC1 [PCM-0102136, N#CC1(NC(=O)CCl)CCCC1]	0%	-15.612	
Cc1cccc([N+](=O)[O-])c1NC(=O)CCl [PCM-0102176, Cc1cccc([N+](=O)[O-])c1NC(=O)CCl]	22%	-16.601	
CN(C)c1ccc(NC(=O)CCl)cc1 [PCM-0102859, CN(C)c1ccc(NC(=O)CCl)cc1]	0%		ln(avg k) [1, 5]: -14.235
CC1CCC(N(C(=O)CCl)C2CC2)CC1 (stereo not shown) [PCM-0102792, CC1CCC(N(C(=O)CCl)C2CC2)CC1]	13%		ln(avg k) [1, 5]: -16.001
C=CC(=O)Nc1nc(-c2ccc(O)cc2)cs1 [PCM-0102884, C=CC(=O)Nc1nc(-c2ccc(O)cc2)cs1]			ln(avg k) [1, 4]: -17.011; OTUB2 % labeling (OTUB2; OTUB2 protein labeling): 0%
CN(Cc1cccc(Cl)c1)C(=O)CCl [PCM-0102976, CN(Cc1cccc(Cl)c1)C(=O)CCl]			ln(avg k) [1, 4]: -16.166; OTUB2 % labeling (OTUB2; OTUB2 protein labeling): 0%
O=C(CCl)Nc1ccc(N2CCCCC2)nc1 [PCM-0102812, O=C(CCl)Nc1ccc(N2CCCCC2)nc1]	14%		ln(avg k) [1, 5]: -15.797
O=C(CCl)NC1CCC(C(F)(F)F)CC1 (stereo not shown) [PCM-0102864, O=C(CCl)NC1CCC(C(F)(F)F)CC1]	0%		ln(avg k) [1, 5]: -16.404
O=C(CCl)Nc1ccc2[nH]c(C(F)(F)F)nc2c1 [PCM-0102151, O=C(CCl)Nc1ccc2[nH]c(C(F)(F)F)nc2c1]	7%	-15.575	
O=C(CCl)Nc1nncs1 [PCM-0102427, O=C(CCl)Nc1nncs1]			ln(avg k) [1, 3]: -16.300; OTUB2 % labeling (OTUB2): 0%
O=C(CCl)N1CCC2CCCCC2C1 (stereo not shown) [PCM-0102474, O=C(CCl)N1CCC2CCCCC2C1]			ln(avg k) [1, 3]: -15.859; OTUB2 % labeling (OTUB2): 0%

Compound	NUDT7 % labeling (NUDT7)	ln(avg k) [1, 2]	further results
Cc1cc(NC(=O)CCl)ccc1Br [PCM-0102770, Cc1cc(NC(=O)CCl)ccc1Br]	21%		ln(avg k) [1, 5]: -15.518
Cc1cc(NC(=O)CCl)n(C)n1 [PCM-0102383, Cc1cc(NC(=O)CCl)n(C)n1]	0%	-15.428	
CC(=O)NC1CCCN(C(=O)CCl)C1 (stereo not shown) [PCM-0102934, CC(=O)NC1CCCN(C(=O)CCl)C1]	0%		ln(avg k) [1, 5]: -15.534
O=C(CCl)Nc1nc(-c2ccco2)cs1 [PCM-0102979, O=C(CCl)Nc1nc(-c2ccco2)cs1]	25%		ln(avg k) [1, 5]: -15.876
CC1CCN(c2ccc(NC(=O)CCl)cc2)CC1 [PCM-0102235, CC1CCN(c2ccc(NC(=O)CCl)cc2)CC1]	0%	-16.035	
O=C(CCl)Nc1ccc2c(c1)OC1(CCCC1)O2 [PCM-0102801, O=C(CCl)Nc1ccc2c(c1)OC1(CCCC1)O2]	10%		ln(avg k) [1, 5]: -15.785
O=C(CCl)N1N=C(c2ccco2)CC1c1cccs1 (stereo not shown) [PCM-0102182, O=C(CCl)N1N=C(c2ccco2)CC1c1cccs1]			ln(avg k) [1, 3]: -14.540; OTUB2 % labeling (OTUB2): 0%
O=C(CCl)Nc1ccc(N2CCCCCC2)cc1 [PCM-0102199, O=C(CCl)Nc1ccc(N2CCCCCC2)cc1]	8%	-15.785	
Cc1ccc(NC(=O)CCl)c(Cl)c1 [PCM-0102408, Cc1ccc(NC(=O)CCl)c(Cl)c1]	18%	-16.426	
O=C(CCl)N1CCc2[nH]c3ccccc3c2C1 [PCM-0102591, O=C(CCl)N1CCc2[nH]c3ccccc3c2C1]	22%	-14.023	
O=C(CCl)N(C1CC1)C1CCCc2ccccc21 (stereo not shown) [PCM-0102774, O=C(CCl)N(C1CC1)C1CCCc2ccccc21]			ln(avg k) [1, 4]: -16.197; OTUB2 % labeling (OTUB2; OTUB2 protein labeling): 0%
O=C(CCl)NCC#Cc1ccccc1 [PCM-0103007, O=C(CCl)NCC#Cc1ccccc1]			ln(avg k) [1, 4]: -16.727; OTUB2 % labeling (OTUB2; OTUB2 protein labeling): 60%
O=C(CCl)NC1CCCCCCC1 [PCM-0102318, O=C(CCl)NC1CCCCCCC1]	0%	-16.468	
Cc1nc(NC(=O)CCl)sc1C [PCM-0102124, Cc1nc(NC(=O)CCl)sc1C]			ln(avg k) [1, 3]: -15.463; OTUB2 % labeling (OTUB2): 0%
CC1CCCCN1C(=O)CCl (stereo not shown) [PCM-0102434, CC1CCCCN1C(=O)CCl]	0%	-15.958	
O=C(CCl)NC1CCC2(CC1)OCCO2 [PCM-0102820, O=C(CCl)NC1CCC2(CC1)OCCO2]			ln(avg k) [1, 4]: -16.468; OTUB2 % labeling (OTUB2; OTUB2 protein labeling): 13%
Cc1cccc(N2CCN(C(=O)CCl)CC2)c1C [PCM-0102215, Cc1cccc(N2CCN(C(=O)CCl)CC2)c1C]	29%	-15.103	
O=C(CCl)Nc1ccc2c(c1)NC(=O)CO2 [PCM-0102890, O=C(CCl)Nc1ccc2c(c1)NC(=O)CO2]	8%		OTUB2 % labeling (OTUB2; OTUB2 protein labeling): 32%
Cc1ccc(NC(=O)CCl)c(C)c1 [PCM-0103041, Cc1ccc(NC(=O)CCl)c(C)c1]	0%		ln(avg k) [1, 5]: -16.644
Cc1ccccc1CNC(=O)CCl [PCM-0102253, Cc1ccccc1CNC(=O)CCl]	0%	-16.467	
O=C(CCl)Nc1c(Cl)cccc1Cl [PCM-0102234, O=C(CCl)Nc1c(Cl)cccc1Cl]	64%	-17.086	
Cc1cc(N2CCCC2)ccc1NC(=O)CCl [PCM-0102301, Cc1cc(N2CCCC2)ccc1NC(=O)CCl]	24%	-16.271	
COc1ccc(NC(=O)NC(=O)CCl)cc1 [PCM-0102268, COc1ccc(NC(=O)NC(=O)CCl)cc1]	0%	-15.795	
